This test concerns the target T1, human µ-opioid receptor (Homo sapiens, UniProt P35372).
T1 construct: expressed in transfected cells; host or cells: CHO-K1
The test can be described thus: Binding assay to human µ-opioid receptor ([3H]-DAMGO displacement). Here is the method: Binding assay to human µ-opioid receptor
Transfected CHO-K1 cell membranes (20 µg) were incubated with [^3H]-DAMGO (1 nM) in assay buffer containing Tris-HCl 50 mM, MgCl2 5 mM at pH 7.4.
Plates were incubated at 27 °C for 60 min. After the incubation period, the reaction mixture was then transferred to MultiScreen HTS, FC plates (Millipore), filtered and plates were washed 3 times with ice-cold 10 mM Tris-HCl (pH 7.4).
Filters were dried and counted at approximately 40% efficiency in a MicroBeta scintillation counter (Perkin-Elmer) using EcoScint liquid scintillation cocktail.

[1] abbreviates: Table 2, transfected CHO-K1 cell membranes, [3H]-DAMGO 1 nM, 60 min at 27 °C, read-out: Binding µ.

Among the data in patent EP3858439A1 (priority 2020, dated 2021) are Ki values, retold here.

Structures can show the parent of a compound that is named as a salt. Where two headings read alike, the source gives them in different places. Where only a bound is given, the exact number is not on record here.

T1 sequence (P35372 whole entry): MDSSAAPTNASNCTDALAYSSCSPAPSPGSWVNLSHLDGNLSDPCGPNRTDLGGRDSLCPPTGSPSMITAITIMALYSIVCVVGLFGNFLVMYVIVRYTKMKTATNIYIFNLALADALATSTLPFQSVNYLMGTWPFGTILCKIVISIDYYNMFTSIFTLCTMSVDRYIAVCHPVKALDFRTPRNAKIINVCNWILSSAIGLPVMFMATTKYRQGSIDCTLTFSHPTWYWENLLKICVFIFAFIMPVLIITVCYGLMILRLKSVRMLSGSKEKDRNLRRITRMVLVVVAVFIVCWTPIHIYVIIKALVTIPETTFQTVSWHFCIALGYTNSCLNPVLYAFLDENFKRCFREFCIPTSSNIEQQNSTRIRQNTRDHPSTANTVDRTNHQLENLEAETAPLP

Consider `CN(C)C1(c2ccccc2)CCN(C(=O)[C@@H](CN)[C@@H]2CCCc3ccccc32)CC1` (racemic) [Example 77, (RS)-3-Amino-1-(4-(dimethylamino)-4-phenylpiperidin-1-yl)-2-((SR)-1,2,3,4-tetrahydronaphthalen-1-yl)propan-1-one], for which the Ki was under 100 nM.
`CN(C)C1(c2ccccc2)CCN(C(=O)[C@@H](CN)[C@H]2CCCc3ccccc32)CC1` (racemic) [Example 78, (RS)-3-amino-1-(4-(dimethylamino)-4-phenylpiperidin-1-yl)-2-((RS)-1,2,3,4-tetrahydronaphthalen-1-yl)propan-1-one] gave a Ki of under 100 nM.
Consider `CNC[C@@H](C(=O)N1CCC(c2ccccc2)(N(C)C)CC1)[C@@H](C)c1ccccc1` [Example 1, (2S,3R)-1-(4-(Dimethylamino)-4-phenylpiperidin-1-yl)-2-((methylamino)methyl)-3-phenylbutan-1-one dihydrochloride], for which, under setting [1], the Ki is under 100 nM.
In the case of `CNC[C@@H](C(=O)N1CCC(c2ccc(F)cc2)(N(C)C)CC1)[C@@H](C)c1ccccc1` [Example 2, (2S,3R)-1-(4-(dimethylamino)-4-(4-fluorophenyl)piperidin-1-yl)-2-((methylamino)methyl)-3-phenylbutan-1-one], the Ki under setting [1] is under 100 nM.
On the same count and under the same terms, with `CNC[C@@H](C(=O)N1CCC(c2cccc(F)c2)(N(C)C)CC1)[C@@H](C)c1ccccc1` [Example 3, (2S,3R)-1-(4-(dimethylamino)-4-(3-fluorophenyl)piperidin-1-yl)-2-((methylamino)methyl)-3-phenylbutan-1-one] the figure was under 100 nM.
On the same count and under the same terms, with `CNC[C@@H](C(=O)N1CCC(NC)(c2ccccc2)CC1)[C@@H](C)c1ccccc1` [Example 4, (2S,3R)-1-(4-(methylamino)-4-phenylpiperidin-1-yl)-2-((methylamino)methyl)-3-phenylbutan-1-one] the figure was 100 to 500 nM.
`CN(C)C1(c2ccccc2)CCN(C(=O)[C@H](CN)C(C)(C)c2ccccc2)CC1` [Example 5, (S)-2-(aminomethyl)-1-(4-(dimethylamino)-4-phenylpiperidin-1-yl)-3-methyl-3-phenylbutan-1-one] came in with a Ki of under 100 nM.
`CC[C@@H](c1ccccc1)[C@@H](CN)C(=O)N1CCC(NC)(c2ccccc2)CC1` [Example 6, (2S,3R)-2-(aminomethyl)-1-(4-(methylamino)-4-phenylpiperidin-1-yl)-3-phenylpentan-1-one dihydrochloride]: under setting [1], the Ki is under 100 nM.
On to `C[C@@H](c1ccccc1)[C@@H](CN)C(=O)N1CCC(c2ccccc2)(N(C)C)CC1` [Example 7, (2S,3R)-2-(aminomethyl)-1-(4-(dimethylamino)-4-phenylpiperidin-1-yl)-3-phenylbutan-1-one dihydrochloride], for which the Ki under setting [1] was under 100 nM.
Same read-out and setting: next, `CC[C@@H](c1ccccc1)[C@@H](CN)C(=O)N1CCC(c2ccccc2)(N(C)C)CC1` [Example 8, (2S,3R)-2-(aminomethyl)-1-(4-(dimethylamino)-4-phenylpiperidin-1-yl)-3-phenylpentan-1-one dihydrochloride]: under 100 nM.
`CNC1(c2ccccc2)CCN(C(=O)[C@H](CN)[C@@H](C)c2ccccc2)CC1` [Example 9, (2S,3R)-2-(aminomethyl)-1-(4-(methylamino)-4-phenylpiperidin-1-yl)-3-phenylbutan-1-one] yielded a Ki of under 100 nM.
As for `CC[C@@H](c1ccccc1)[C@@H](CN)C(=O)N1CC(c2ccccc2)(N(C)C)C1` [Example 10, (2S,3R)-2-(aminomethyl)-1-(3-(dimethylamino)-3-phenylazetidin-1-yl)-3-phenylpentan-1-one], under setting [1], the Ki is over 500 nM.
On the same count and under the same terms, with `CC[C@@H](c1cccc(F)c1)[C@@H](CN)C(=O)N1CCC(NC)(c2ccccc2)CC1` [Example 11, (2S,3R)-2-(aminomethyl)-3-(3-fluorophenyl)-1-(4-(methylamino)-4-phenylpiperidin-1-yl)pentan-1-one] the figure was under 100 nM; with `CNC[C@@H](C(=O)N1CCC(c2ccc(OC)cc2)(N(C)C)CC1)[C@@H](C)c1ccccc1` [Example 12, (2S,3R)-1-(4-(dimethylamino)-4-(4-methoxyphenyl)piperidin-1-yl)-2-((methylamino)methyl)-3-phenylbutan-1-one], under 100 nM.
Still for that read-out and setting: next, `CC[C@@H](c1ccccc1)[C@@H](CNC)C(=O)N1CCC(c2ccccc2)(N(C)C)CC1` [Example 13, (2S,3R)-1-(4-(dimethylamino)-4-phenylpiperidin-1-yl)-2-((methylamino)methyl)-3-phenylpentan-1-one dihydrochloride]: under 100 nM; `CNC[C@@H](C(=O)N1CCC(c2ccccc2)(N(C)C)CC1)[C@@H](C)c1ccccc1F` [Example 14, (2S,3R)-1-(4-(dimethylamino)-4-phenylpiperidin-1-yl)-3-(2-fluorophenyl)-2-((methylamino)methyl)butan-1-one dihydrochloride]: 100 to 500 nM.
Consider `CNC[C@@H](C(=O)N1CCC(c2ccccc2)(N(C)C)CC1)[C@@H](C)c1cccc(F)c1` [Example 15, (2S,3R)-1-(4-(dimethylamino)-4-phenylpiperidin-1-yl)-3-(3-fluorophenyl)-2-((methylamino)methyl)butan-1-one], for which the Ki under setting [1] was under 100 nM.
Consider `CNC[C@@H](C(=O)N1CCC(c2cccc(O)c2)(N(C)C)CC1)[C@@H](C)c1ccccc1` [Example 16, (2S,3R)-1-(4-(dimethylamino)-4-(3-hydroxyphenyl)piperidin-1-yl)-2-((methylamino)methyl)-3-phenylbutan-1-one dihydrochloride], for which, under setting [1], the Ki is under 100 nM.
For `CC[C@@H](c1ccccc1)[C@@H](CNC)C(=O)N1CCC(NC)(c2ccccc2)CC1` [Example 17, (2S,3R)-1-(4-(methylamino)-4-phenylpiperidin-1-yl)-2-((methylamino)methyl)-3-phenylpentan-1-one dihydrochloride], the Ki under setting [1] was under 100 nM.
On the same count and under the same terms, next, `CC[C@@H](c1ccccc1)[C@@H](CNC)C(=O)N1CC(c2ccccc2)(N(C)C)C1` [Example 19, (2S,3R)-1-(3-(dimethylamino)-3-phenylazetidin-1-yl)-2-((methylamino)methyl)-3-phenylpentan-1-one dihydrochloride]: over 500 nM.
As for `CC[C@@H](c1cccc(F)c1)[C@@H](CNC)C(=O)N1CCC(NC)(c2ccccc2)CC1` [Example 20, (2S,3R)-3-(3-fluorophenyl)-1-(4-(methylamino)-4-phenylpiperidin-1-yl)-2-((methylamino)methyl)pentan-1-one], the Ki under setting [1] was under 100 nM.
For `CC[C@@H](c1cccc(F)c1)[C@@H](CNC)C(=O)N1CCC(c2ccccc2)(N(C)C)CC1` [Example 21, (2S,3R)-1-(4-(dimethylamino)-4-phenylpiperidin-1-yl)-3-(3-fluorophenyl)-2-((methylamino)methyl)pentan-1-one], the Ki under setting [1] was under 100 nM.
Still for that read-out and setting: next, `CC[C@@H](c1ccccc1)[C@@H](CNC)C(=O)N1CCC(NC)(c2ccc(OC)cc2)CC1` [Example 22, (2S,3R)-1-(4-(4-methoxyphenyl)-4-(methylamino)piperidin-1-yl)-2-((methylamino)methyl)-3-phenylpentan-1-one dihydrochloride]: under 100 nM.
In the case of `CN(C)C1(c2ccccc2)CCN(C(=O)C(CN)Cc2ccccc2)CC1` (stereo not drawn) [Example 28, 3-amino-2-benzyl-1-(4-(dimethylamino)-4-phenylpiperidin-1-yl)propan-1-one dihydrochloride], the Ki is under 100 nM.
